In brackets after ≈: the same amount, converted by molar mass. Read-outs that look alike come from different tables or passages of the source.
Columns and labels:
[1] = test system: Candida albicans; experiment: Broth microdilution of invasive fungal isolates (CLSI M27-A3/M38-A2); type: cell-based; conditions: 251 isolates
[2] = test system: Candida glabrata; experiment: microbe, parasite or virus in culture; type: cell-based
[3] = test system: Candida krusei; experiment: Broth microdilution of invasive fungal isolates (CLSI M27-A3/M38-A2); type: cell-based; conditions: 16 isolates
[4] = test system: Cryptococcus neoformans var. grubii; experiment: as above; type: cell-based; conditions: 19 isolates
[5] = test system: C. albicans NRRL Y-477; experiment: Broth microdilution MIC (CLSI), Examples 3 and 4; conditions: Candida albicans
Protocol: Antifungal susceptibility testing. […] MIC assays were performed in triplicate.

[6] = test system: C. glabrata ATCC 90030, ATCC 2001; experiment: Broth microdilution MIC (CLSI), Examples 3 and 4; conditions: for MIC: Nakaseomyces glabratus
Protocol: (§1) Antifungal susceptibility testing. Candida strains were cultured aerobically at 35° C. on SDA plates or in RPMI 1640 broth (pH 7.0). […] MIC assays were performed in triplicate.

[7] = test system: C. krusei ATCC 6258; experiment: Broth microdilution MIC (CLSI), Examples 3 and 4; conditions: Pichia kudriavzevii, ATCC6258, 24 h, read-out: Broth MIC
Protocol: as §1

Q: For `CC[C@H](C)C[C@H](C)CCCCCCCCC(=O)N[C@H]1C[C@@H](O)[C@@H](NCCN)NC(=O)[C@@H]2[C@@H](O)CCN2C(=O)[C@H]([C@H](O)CCN)NC(=O)[C@H]([C@H](O)[C@@H](O)c2ccc(O)cc2)NC(=O)[C@@H]2C[C@@H](O)CN2C(=O)[C@H]([C@@H](C)O)NC1=O` [CAS, caspofungin], which “Number of isolates inhibited at MIC 0.12 μg/mL” value [1] is on record?
A: 2

Q: And the “Number of isolates inhibited at MIC ≤0.008 μg/mL” value [1]?
A: 4

Q: What about the MIC50 ([1]; Candida albicans, read-out: MIC50) of the same compound?
A: 0.03 µg/mL (≈ 0.0274 µM)

Q: What about the MIC90 ([1]; Candida albicans, read-out: MIC90) of the same compound?
A: 0.06 µg/mL (≈ 0.0549 µM)

Q: And the “Cumulative % of isolates inhibited at MIC 0.03 μg/mL” value ([2]; 100 isolates)?
A: (38.0) %

Q: And the “Cumulative % of isolates inhibited at MIC 0.06 μg/mL” value ([2]; 100 isolates)?
A: (89.0) %

Q: What about the “Cumulative % of isolates inhibited at MIC 0.12 μg/mL” value ([2]; 100 isolates) of the same compound?
A: (95.0) %

Q: What about the “Cumulative % of isolates inhibited at MIC 0.25 μg/mL” value ([2]; 100 isolates) of the same compound?
A: (95.0) %

Q: What about the “Cumulative % of isolates inhibited at MIC 0.5 μg/mL” value ([2]; 100 isolates) of the same compound?
A: (95.0) %

Q: And the “Cumulative % of isolates inhibited at MIC 1 μg/mL” value ([2]; 100 isolates)?
A: (95.0) %

Q: What about the “Cumulative % of isolates inhibited at MIC 2 μg/mL” value ([2]; 100 isolates) of the same compound?
A: (97.0) %

Q: What about the “Cumulative % of isolates inhibited at MIC 4 μg/mL” value ([2]; 100 isolates) of the same compound?
A: (97.0) %

Q: And the “Cumulative % of isolates inhibited at MIC 8 μg/mL” value ([2]; 100 isolates)?
A: (100.0) %

Q: What about the “Number of isolates inhibited at MIC 0.03 μg/mL” value ([2]; 100 isolates) of the same compound?
A: 38

Q: What about the “Number of isolates inhibited at MIC 0.06 μg/mL” value ([2]; 100 isolates) of the same compound?
A: 51

Q: And the “Number of isolates inhibited at MIC 0.12 μg/mL” value ([2]; 100 isolates)?
A: 6

Q: What about the “Number of isolates inhibited at MIC 0.25 μg/mL” value ([2]; 100 isolates) of the same compound?
A: 0

Q: What about the “Number of isolates inhibited at MIC 0.5 μg/mL” value ([2]; 100 isolates) of the same compound?
A: 0

Q: And the “Number of isolates inhibited at MIC 1 μg/mL” value ([2]; 100 isolates)?
A: 0

Q: What about the “Number of isolates inhibited at MIC 2 μg/mL” value ([2]; 100 isolates) of the same compound?
A: 3

Q: And the “Number of isolates inhibited at MIC 4 μg/mL” value ([2]; 100 isolates)?
A: 0

Q: What about the “Number of isolates inhibited at MIC 8 μg/mL” value ([2]; 100 isolates) of the same compound?
A: 3

Q: What about the MIC50 ([2]; Nakaseomyces glabratus) of the same compound?
A: 0.06 µg/mL (≈ 0.0549 µM)

Q: What about the MIC90 ([2]; Nakaseomyces glabratus) of the same compound?
A: 0.12 µg/mL (≈ 0.11 µM)

Q: What about the MIC ([2]; Nakaseomyces glabratus, read-out: MIC according to CLSI method, isolate from CA, USA, fks1 HS1 S629P) of the same compound?
A: 8 µg/mL (≈ 7.32 µM)

Q: And the MIC ([2]; Nakaseomyces glabratus, read-out: MIC according to CLSI method, isolate from Canada (first line), fks1 HS1 S629P, fks2 HS1 S663P)?
A: > 8 µg/mL

Q: And the MIC ([2]; Nakaseomyces glabratus, read-out: MIC according to CLSI method, isolate from Canada (second line), fks1 HS1 S629P, fks2 HS1 S663P)?
A: > 8 µg/mL

Q: And the MIC ([2]; Nakaseomyces glabratus, read-out: MIC according to CLSI method, isolate from Israel, fks2 HS1 F659S)?
A: 2 µg/mL (≈ 1.83 µM)

Q: And the MIC ([2]; Nakaseomyces glabratus, read-out: MIC according to CLSI method, isolate from NY, USA, fks2 HS1 S663P)?
A: 2 µg/mL (≈ 1.83 µM)

Q: What about the MIC ([2]; Nakaseomyces glabratus, read-out: MIC results, two isolates from same patient, Edmonton, Canada, fks1 HS1 S629P and fks2 HS1 S663P) of the same compound?
A: > 8 µg/mL

Q: What about the “Cumulative % of isolates inhibited at MIC 0.06 μg/mL” value [3] of the same compound?
A: (25.0) %

Q: What about the “Cumulative % of isolates inhibited at MIC 0.12 μg/mL” value [3] of the same compound?
A: (87.5) %

Q: What about the “Cumulative % of isolates inhibited at MIC 0.25 μg/mL” value [3] of the same compound?
A: (100.0) %

Q: What about the “Number of isolates inhibited at MIC 0.06 μg/mL” value [3] of the same compound?
A: 4

Q: And the “Number of isolates inhibited at MIC 0.12 μg/mL” value [3]?
A: 10

Q: And the “Number of isolates inhibited at MIC 0.25 μg/mL” value [3]?
A: 2

Q: And the MIC50 ([3]; Pichia kudriavzevii, read-out: MIC50)?
A: 0.12 µg/mL (≈ 0.11 µM)

Q: And the MIC90 ([3]; Pichia kudriavzevii, read-out: MIC90)?
A: 0.25 µg/mL (≈ 0.229 µM)

Q: And the “Cumulative % of isolates inhibited at MIC 8 μg/mL” value [4]?
A: (21.1) %

Q: And the “Cumulative % of isolates inhibited at MIC >8 μg/mL” value [4]?
A: (100.0) %

Q: And the “Number of isolates inhibited at MIC 8 μg/mL” value [4]?
A: 4

Q: And the “Number of isolates inhibited at MIC >8 μg/mL” value [4]?
A: 15

Q: What about the MIC50 ([4]; Cryptococcus neoformans, read-out: MIC50) of the same compound?
A: 8 µg/mL (≈ 7.32 µM)

Q: What about the MIC90 ([4]; Cryptococcus neoformans, read-out: MIC90) of the same compound?
A: 8 µg/mL (≈ 7.32 µM)

Q: What about the MIC ([5]; NRRLY477) of the same compound?
A: 0.5 µg/mL (≈ 0.457 µM)

Q: And the MIC ([5]; NRRLY477, 24 h, read-out: Broth MIC)?
A: 0.25 µg/mL (≈ 0.229 µM)

Q: What about the “Broth MIC” value ([6]; ATCC 2001 wild-type, 24 h, ~50% inhibition) of the same compound?
A: 0.25 µg/mL

Q: And the MIC ([6]; 24 h, read-out: Broth MIC)?
A: 0.25 µg/mL (≈ 0.229 µM)

Q: And the MIC ([6]; ATCC2001|ATCC90030, ATCC 2001 spontaneous mutant, Fks2 HS1 D666N)?
A: 0.25 µg/mL (≈ 0.229 µM)

Q: And the MIC ([6]; ATCC2001|ATCC90030, ATCC 2001 spontaneous mutant, Fks2 HS1 D666Y)?
A: 0.5 µg/mL (≈ 0.457 µM)

Q: What about the MIC ([6]; ATCC2001|ATCC90030, ATCC 2001 spontaneous mutant, Fks2 HS1 R665G) of the same compound?
A: 0.5 µg/mL (≈ 0.457 µM)

Q: What about the MIC ([6]; ATCC2001|ATCC90030, ATCC 2001 spontaneous mutant, Fks2 HS1 S663F) of the same compound?
A: 1 µg/mL (≈ 0.915 µM)

Q: What about the MIC ([6]; ATCC2001|ATCC90030, ATCC 2001 spontaneous mutant, Fks2 HS1 ΔF659) of the same compound?
A: 16 µg/mL (≈ 14.6 µM)

Q: And the MIC ([6]; ATCC2001|ATCC90030, ATCC 2001 spontaneous mutant, Fks2 HS2 R1378S)?
A: 0.25 µg/mL (≈ 0.229 µM)

Q: And the MIC ([6]; ATCC2001|ATCC90030, ATCC 90030 spontaneous mutant, Fks2 HS1 D666H)?
A: 1 µg/mL (≈ 0.915 µM)

Q: What about the MIC ([6]; ATCC2001|ATCC90030, ATCC 90030 spontaneous mutant, Fks2 HS1 ΔF659) of the same compound?
A: 4 µg/mL (≈ 3.66 µM)

Q: What about the MIC [7] of the same compound?
A: 0.5 µg/mL (≈ 0.457 µM)
